{"source": "paper PMC7051184", "about": "“C9orf72 arginine-rich dipeptide repeat proteins disrupt karyopherin-mediated nuclear import” (eLife, 2020);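 on ImpA band density, % untr control: RNA rows contain added 20 µg total HEK RNA while no-RNA rows lack it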;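 on Ran band density, % untr control: RNA rows contain added 20 µg total HEK RNA while no-RNA rows lack it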;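 on Rps25 band density, % untr control: RNA rows contain added 20 µg total HEK RNA while no-RNA rows lack it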", "format_in_all_cases": "biochemical, human", "conditions_in_all_cases": "Fig 5-suppl 3C, normalized to untreated HEK on same membrane", "key": {"transportin-1 (Tnpo1)": {"tested_on": "transportin-1 (Tnpo1)", "test": "DPR aggregation assay and western blot, Tnpo1;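 further: RNA rows contain added 20 µg total HEK RNA while no-RNA rows lack it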", "method": "(§1) Supernatant and pellet fractions (for all 5 DPRs, and control/buffer only) were prepared as in the nuclear transport assays, by adding 100 µM 10mers to 2.5 mg/ml HEK lysate in 100 µL TRB. Supernatants were boiled in Laemmli (BioRad) for 5 min. Pellets were boiled for 15 min followed by sonication in order to fully disperse aggregates for SDS-PAGE. Equal volumes of supernatant and pellet fractions were run on 4–12% Bolt Bis-Tris Plus gels (ThermoFisher), transferred to nitrocellulose membrane using an iBlot2 dry blotting system (ThermoFisher). Protein loading was analyzed by BLOT-Faststain (G-biosciences, St. Louis, MO), according to the manufacterers’ instructions. For immunodetection, membranes were blocked with 5% non-fat milk in TBST and probed by sequential incubation with the primary antibodies as detailed in the table below. Detection was by HRP-conjugated secondary antibodies/chemiluminescence using an ImageQuant LAS 4000 system (GE, Chicago, IL). To permit sequential probing of membranes without stripping, signals were quenched by incubation with prewarmed 30% H20_2 for 20 min ([Sennepin et al., 2009]). Band intensities were measured by ImageQuant software. For pellet vs. supernatant fractions, all were expressed as percent untreated control. For blots in Figure 1E, samples were run on 4–20% SDS PAGE minigels (ThermoFisher) and blotted to PVDF membranes (Immun-Blot PVDF, Bio-Rad) using the Bio-Rad TransBlot Turbo apparatus, and probed as above. The chemiluminescence signal was captured with a Bio-Rad ChemiDoc XRS+ digital imaging system."}, "Rps25": {"tested_on": "Rps25", "test": "DPR aggregation assay and western blot, Rps25", "source_text": "Supplement elife-51685-fig5-data1.xlsx, sheet \"Figure 5-figure suppl 3\" | column: Rps25"}, "RanGAP1": {"tested_on": "RanGAP1", "test": "DPR aggregation assay and western blot, RanGAP1", "method": "as §1"}, "importin α": {"tested_on": "importin α", "test": "DPR aggregation assay and western blot, ImpA", "method": "as §1"}, "Ran": {"tested_on": "Ran", "test": "DPR aggregation assay and western blot, Ran", "method": "as §1"}, "RPS6": {"tested_on": "RPS6", "test": "DPR aggregation assay and western blot, RPS6", "method": "as §1"}, "[1]": {"conditions": "Pellet, no RNA (Untreated), blot 1"}, "[2]": {"conditions": "Pellet, no RNA (Untreated), blot 2"}, "[3]": {"conditions": "Supernatant, no RNA (Untreated), blot 1"}, "[4]": {"conditions": "Supernatant, no RNA (Untreated), blot 2"}}, "data": [{"substance": "GA10: Synthetic 10-mer GA dipeptide repeat with C-terminal lysine and cysteine (GAGAGAGAGAGAGAGAGAGAKC)", "values": [{"measurement": "TNPO1 band density, % untr control", "setting": "transportin-1 (Tnpo1); Pellet, RNA, blot 1", "result": 84.30, "unit": "%"}, {"measurement": "TNPO1 band density, % untr control", "setting": "transportin-1 (Tnpo1); Pellet, RNA, blot 2", "result": 68.79, "unit": "%"}, {"measurement": "TNPO1 band density, % untr control", "setting": "transportin-1 (Tnpo1); [1]", "result": 107.97, "unit": "%"}, {"measurement": "TNPO1 band density, % untr control", "setting": "transportin-1 (Tnpo1); [2]", "result": 107.46, "unit": "%"}, {"measurement": "TNPO1 band density, % untr control", "setting": "transportin-1 (Tnpo1); Supernatant, RNA, blot 1", "result": 64.64, "unit": "%"}, {"measurement": "TNPO1 band density, % untr control", "setting": "transportin-1 (Tnpo1); Supernatant, RNA, blot 2", "result": 100.29, "unit": "%"}, {"measurement": "TNPO1 band density, % untr control", "setting": "transportin-1 (Tnpo1); [3]", "result": 66.29, "unit": "%"}, {"measurement": "TNPO1 band density, % untr control", "setting": "transportin-1 (Tnpo1); [4]", "result": 92.01, "unit": "%"}, {"measurement": "Rps25 band density, % untr control", "setting": "Rps25; Pellet, RNA, blot 1", "result": 48.52, "unit": "%"}, {"measurement": "Rps25 band density, % untr control", "setting": "Rps25; Pellet, RNA, blot 2", "result": 61.57, "unit": "%"}, {"measurement": "Rps25 band density, % untr control", "setting": "Rps25; [1]", "result": 84.83, "unit": "%"}, {"measurement": "Rps25 band density, % untr control", "setting": "Rps25; [2]", "result": 128.35, "unit": "%"}, {"measurement": "Rps25 band density, % untr control", "setting": "Rps25; Supernatant, RNA, blot 1", "result": 121.04, "unit": "%"}, {"measurement": "Rps25 band density, % untr control", "setting": "Rps25; Supernatant, RNA, blot 2", "result": 82.85, "unit": "%"}, {"measurement": "Rps25 band density, % untr control", "setting": "Rps25; [3]", "result": 112.04, "unit": "%"}, {"measurement": "Rps25 band density, % untr control", "setting": "Rps25; [4]", "result": 76.84, "unit": "%"}, {"measurement": "RanGAP1 band density, % untr control", "setting": "RanGAP1; Pellet, RNA, blot 1", "result": 93.93, "unit": "%"}, {"measurement": "RanGAP1 band density, % untr control", "setting": "RanGAP1; Pellet, RNA, blot 2", "result": 89.10, "unit": "%"}, {"measurement": "RanGAP1 band density, % untr control", "setting": "RanGAP1; [1]", "result": 87.31, "unit": "%"}, {"measurement": "RanGAP1 band density, % untr control", "setting": "RanGAP1; [2]", "result": 80.44, "unit": "%"}, {"measurement": "RanGAP1 band density, % untr control", "setting": "RanGAP1; Supernatant, RNA, blot 1", "result": 83.26, "unit": "%"}, {"measurement": "RanGAP1 band density, % untr control", "setting": "RanGAP1; Supernatant, RNA, blot 2", "result": 119.18, "unit": "%"}, {"measurement": "RanGAP1 band density, % untr control", "setting": "RanGAP1; [3]", "result": 131.44, "unit": "%"}, {"measurement": "RanGAP1 band density, % untr control", "setting": "RanGAP1; [4]", "result": 105.30, "unit": "%"}, {"measurement": "ImpA band density, % untr control", "setting": "importin α; Pellet, RNA, blot 1", "result": 93.99, "unit": "%"}, {"measurement": "ImpA band density, % untr control", "setting": "importin α; Pellet, RNA, blot 2", "result": 102.25, "unit": "%"}, {"measurement": "ImpA band density, % untr control", "setting": "importin α; [1]", "result": 106.73, "unit": "%"}, {"measurement": "ImpA band density, % untr control", "setting": "importin α; [2]", "result": 98.70, "unit": "%"}, {"measurement": "ImpA band density, % untr control", "setting": "importin α; Supernatant, RNA, blot 1", "result": 83.82, "unit": "%"}, {"measurement": "ImpA band density, % untr control", "setting": "importin α; Supernatant, RNA, blot 2", "result": 115.58, "unit": "%"}, {"measurement": "ImpA band density, % untr control", "setting": "importin α; [3]", "result": 82.83, "unit": "%"}, {"measurement": "ImpA band density, % untr control", "setting": "importin α; [4]", "result": 108.20, "unit": "%"}, {"measurement": "Ran band density, % untr control", "setting": "Ran; Pellet, RNA, blot 1", "result": 129.05, "unit": "%"}, {"measurement": "Ran band density, % untr control", "setting": "Ran; Pellet, RNA, blot 2", "result": 192.76, "unit": "%"}, {"measurement": "Ran band density, % untr control", "setting": "Ran; [1]", "result": 79.12, "unit": "%"}, {"measurement": "Ran band density, % untr control", "setting": "Ran; [2]", "result": 116.78, "unit": "%"}, {"measurement": "Ran band density, % untr control", "setting": "Ran; Supernatant, RNA, blot 1", "result": 116.22, "unit": "%"}, {"measurement": "Ran band density, % untr control", "setting": "Ran; Supernatant, RNA, blot 2", "result": 99.76, "unit": "%"}, {"measurement": "Ran band density, % untr control", "setting": "Ran; [3]", "result": 117.84, "unit": "%"}, {"measurement": "Ran band density, % untr control", "setting": "Ran; [4]", "result": 105.67, "unit": "%"}, {"measurement": "Rps6 band density, % untr control", "setting": "RPS6; Pellet, RNA, blot 1", "result": 45.85, "unit": "%"}, {"measurement": "Rps6 band density, % untr control", "setting": "RPS6; Pellet, RNA, blot 2", "result": 60.48, "unit": "%"}, {"measurement": "Rps6 band density, % untr control", "setting": "RPS6; [1]", "result": 113.52, "unit": "%"}, {"measurement": "Rps6 band density, % untr control", "setting": "RPS6; [2]", "result": 119.87, "unit": "%"}, {"measurement": "Rps6 band density, % untr control", "setting": "RPS6; Supernatant, RNA, blot 1", "result": 64.65, "unit": "%"}, {"measurement": "Rps6 band density, % untr control", "setting": "RPS6; Supernatant, RNA, blot 2", "result": 73.01, "unit": "%"}, {"measurement": "Rps6 band density, % untr control", "setting": "RPS6; [3]", "result": 90.06, "unit": "%"}, {"measurement": "Rps6 band density, % untr control", "setting": "RPS6; [4]", "result": 67.32, "unit": "%"}]}]}
